For two compounds, DC50 and Ratio results are on record in ChEMBL document CHEMBL4732046, “A red-light-activated sulfonamide porphycene for highly efficient photodynamic therapy against hypoxic tumor” (Eur J Med Chem, 2021).

Experiment [1] has as its system HeLa. In words: Photocytotoxicity against human HeLa cells assessed as reduction in cell viability irradiated with 640 +/- 15 nm red LED for 4 hrs measured after 24 hrs under hypoxic condition by MTT assay. In kind it is functional, cell-based. Particulars: light or radiation study. Background: Tetrazolium assays rely on reduction of a dye to a coloured formazan, in cell work by metabolically active cells.

Experiment [2] has as its system HeLa. In words: Cytotoxicity against human HeLa cells assessed as cell viability in dark measured after 24 hrs by MTT assay. It is filed as functional, cell-based.
Experiment [3] relates to HeLa. In words: Photocytotoxicity against human HeLa cells assessed as reduction in cell viability irradiated with 640 +/- 15 nm red LED for 4 hrs measured after 24 hrs by MTT assay. In kind it is functional, cell-based. Particulars: light or radiation study.
The subject of experiment [4] is B16. Nature of the experiment: Photocytotoxicity against mouse B16 cells assessed as reduction in cell viability irradiated with 640 +/- 15 nm red LED for 4 hrs measured after 24 hrs under hypoxic condition by MTT assay. In kind it is functional, cell-based. Conditions: B16, light or radiation study.
Experiment [5] relates to A-375. In words: Photocytotoxicity against human A-375 cells assessed as reduction in cell viability irradiated with 640 +/- 15 nm red LED for 4 hrs measured after 24 hrs by MTT assay. It is filed as functional, cell-based. Particulars: A-375, light or radiation study.
The subject of experiment [6] is B16. In words: Cytotoxicity against mouse B16 cells assessed as cell viability in dark measured after 24 hrs by MTT assay. Conditions: B16, 24 h. It is filed as functional, cell-based.
In experiment [7] the test system is A-375. In words: Cytotoxicity against human A-375 cells assessed as cell viability in dark measured after 24 hrs by MTT assay. It is filed as functional, cell-based. Particulars: A-375, 24 h.
Experiment [8] deals with B16. In words: Photocytotoxicity against mouse B16 cells assessed as reduction in cell viability irradiated with 640 +/- 15 nm red LED for 4 hrs measured after 24 hrs by MTT assay. It is filed as functional, cell-based. Particulars: B16, light or radiation study.
Experiment [9] deals with KYSE-70 cell line. In words: Cytotoxicity against human KYSE-70 cells assessed as cell viability in dark measured after 24 hrs by MTT assay. In kind it is functional, cell-based. Conditions: KYSE-70, 24 h.
Experiment [10] relates to KYSE-70 cell line. In words: Photocytotoxicity against human KYSE-70 cells assessed as reduction in cell viability irradiated with 640 +/- 15 nm red LED for 4 hrs measured after 24 hrs under hypoxic condition by MTT assay. It is filed as functional, cell-based. Particulars: KYSE-70, light or radiation study.
Experiment [11] has as its system A-375. Nature of the experiment: Photocytotoxicity against human A-375 cells assessed as reduction in cell viability irradiated with 640 +/- 15 nm red LED for 4 hrs measured after 24 hrs under hypoxic condition by MTT assay. It is filed as functional, cell-based. Particulars: A-375, light or radiation study.
In experiment [12] the test system is KYSE-70 cell line. In words: Photocytotoxicity against human KYSE-70 cells assessed as reduction in cell viability irradiated with 640 +/- 15 nm red LED for 4 hrs measured after 24 hrs by MTT assay. In kind it is functional, cell-based. Particulars: KYSE-70, light or radiation study.
For experiment [13], the system named is HeLa. Nature of the experiment: Photo-therapeutic index, ratio of LD50 for photocytotoxicity against human HeLa cells assessed as reduction in cell viability irradiated with 640 +/- 15 nm red LED for 4 hrs measured after 24 hrs by MTT assay to LD50 for cytotoxicity against human HeLa cells assessed as cell viability in dark measured after 24 hrs by MTT assay. In kind it is functional.

As to `CC(C)(C)C1=Cc2nc1ccc1[nH]c(cc1C(C)(C)C)c1nc(ccc3[nH]c2cc3S(=O)(=O)NCCOCCO)C(S(=O)(=O)NCCOCCO)=C1`, the DC50 in experiment [1] was found to be 329 nM; in [2], 24000 nM; in experiment [3], 69 nM; in [4] it was 370 nM; in experiment [5], 23 nM; in [6] it was 57000 nM. Moreover, the DC50 in experiment [7] was determined as 28000 nM; in [8] it was 168 nM; in experiment [9] it was 28000 nM; in experiment [10], 24 nM; in experiment [11] it was 57 nM; in [12], 5 nM. For the same compound, the Ratio in experiment [13] worked out at 73.

On to `CC/N=c1/cc2sc3cc(N(CC)CC)ccc3nc-2c2ccccc12`, for which the DC50 was 1030 nM in [1]; 7000 nM in experiment [2]; 95 nM in experiment [3]; 1890 nM in experiment [4]; 507 nM in experiment [5]; 11000 nM in experiment [6]. In addition, the DC50 was 1000 nM in experiment [7]; 930 nM in experiment [8]; 4000 nM in experiment [9]; 809 nM in experiment [10]; 1300 nM in experiment [11]; 305 nM in [12].
